Where two headings read alike, the source gives them in different places.
Tests used:
multiple CFTR mutations = settings: cited from earlier work
WT-hCFTR [1] = target: T1, WT-hCFTR (Homo sapiens, UniProt P13569); settings: cited from earlier work
T1 construct: expressed in transfected cells; host or cells: Xenopus laevis oocytes injected with cRNA (pGEMHE construct from Dr. D. Gadsby)

F508del-hCFTR = target: T2, F508del-hCFTR (Homo sapiens, UniProt P13569, DEL508-508); test: Two-electrode voltage clamp (TEVC) on F508del-hCFTR expressed in Xenopus oocytes; format: cell-based; settings: for potentiation of F508del-hCFTR, summary in words: FIGS. 4A and 4B under modified conditions
T2 construct: expressed in transfected cells; host or cells: Xenopus laevis oocytes injected with cRNA; The mutant was made by Quikchange mutagenesis of hCFTR/pGEMHE
T2 sequence (P13569 with tags, fused parts or gaps DEL508-508): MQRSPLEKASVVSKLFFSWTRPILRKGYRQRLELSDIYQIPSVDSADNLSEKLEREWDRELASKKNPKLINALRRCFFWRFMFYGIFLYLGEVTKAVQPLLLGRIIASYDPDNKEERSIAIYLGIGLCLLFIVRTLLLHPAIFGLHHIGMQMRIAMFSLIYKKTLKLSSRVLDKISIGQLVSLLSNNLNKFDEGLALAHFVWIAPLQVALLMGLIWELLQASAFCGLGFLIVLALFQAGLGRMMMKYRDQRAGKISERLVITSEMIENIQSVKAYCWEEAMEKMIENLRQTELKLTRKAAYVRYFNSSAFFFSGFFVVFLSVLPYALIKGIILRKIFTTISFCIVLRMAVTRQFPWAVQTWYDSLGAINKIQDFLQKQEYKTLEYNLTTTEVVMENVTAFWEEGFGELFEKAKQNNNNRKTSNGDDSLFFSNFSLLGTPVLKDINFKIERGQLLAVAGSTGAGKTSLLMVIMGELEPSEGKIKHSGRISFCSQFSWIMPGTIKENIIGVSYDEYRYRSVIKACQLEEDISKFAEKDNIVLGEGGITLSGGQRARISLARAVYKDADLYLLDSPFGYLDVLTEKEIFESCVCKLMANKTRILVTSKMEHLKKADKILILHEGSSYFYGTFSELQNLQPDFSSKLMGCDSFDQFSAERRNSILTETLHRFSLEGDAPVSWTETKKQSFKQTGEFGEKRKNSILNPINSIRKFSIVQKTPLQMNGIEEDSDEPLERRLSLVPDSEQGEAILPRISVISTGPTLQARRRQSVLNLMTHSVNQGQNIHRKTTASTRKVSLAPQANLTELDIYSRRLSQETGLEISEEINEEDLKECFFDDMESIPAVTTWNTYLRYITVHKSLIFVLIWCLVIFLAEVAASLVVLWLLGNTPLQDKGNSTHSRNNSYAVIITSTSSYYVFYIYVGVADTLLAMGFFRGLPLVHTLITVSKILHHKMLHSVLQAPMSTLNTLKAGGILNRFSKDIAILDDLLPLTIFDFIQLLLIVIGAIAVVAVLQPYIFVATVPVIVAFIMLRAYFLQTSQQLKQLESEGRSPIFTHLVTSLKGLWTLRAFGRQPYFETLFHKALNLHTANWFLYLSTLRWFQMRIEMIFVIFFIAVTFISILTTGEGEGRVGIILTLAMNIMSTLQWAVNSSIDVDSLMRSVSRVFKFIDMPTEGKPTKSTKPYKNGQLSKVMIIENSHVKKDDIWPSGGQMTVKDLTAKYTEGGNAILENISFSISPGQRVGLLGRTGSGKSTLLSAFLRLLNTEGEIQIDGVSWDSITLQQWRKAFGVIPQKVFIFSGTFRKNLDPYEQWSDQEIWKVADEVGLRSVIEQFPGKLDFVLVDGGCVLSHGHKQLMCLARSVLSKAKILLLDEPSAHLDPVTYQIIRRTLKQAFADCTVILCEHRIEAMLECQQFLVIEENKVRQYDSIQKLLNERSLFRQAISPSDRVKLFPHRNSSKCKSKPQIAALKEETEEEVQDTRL
Procedure: Nearly 90% of CF patients in the United States bear at least one F508del-CFTR allele; OSSK-3, and OSSK-2 were studied on F508del-hCFTR using the TEVC technique at VM=−60 mV.
(§1) Human CFTR cRNAs used in electrophysiology experiments were prepared from constructs encoding WT-hCFTR in the pGEMHE vector (hCFTR/pGEMHE kindly provided by Dr. D. Gadsby, Rockefeller University). The mutants of hCFTR used in this study were prepared using site-directed mutagenesis with the Quikchange protocol (Stratagene, La Jolla, Calif.) and mutant constructs were verified by sequencing across the entire open reading frame before use. Xenopus laevis oocytes were injected with 0.4-10 ng of CFTR cRNAs, and were incubated at 17° C. in modified Liebovitz's L-15 media with the addition of HEPES (pH 7.5), penicillin, and streptomycin. Recordings were made typically 24-96 hours after the injection of cRNAs.
(§2) Standard two-electrode voltage clamp (TEVC) techniques were used to study the effects of chemicals with application of reagents to the extracellular bath. Each oocyte was injected with CFTR cRNA along with cRNA encoding the beta2-adrenergic receptor (β2AR). Electrode resistances measured 0.5-1.4 MΩ when filled with 3 M KCl and measured in standard ND96 bath solution that contained (in mM): 96 NaCl, 2 KCl, 1 MgCl2, and 5 HEPES (pH 7.5). CFTR channels were activated by exposure to 10 μM isoproterenol (ISO) in ND 96 and alternatively assayed in the presence or absence of different concentrations of compounds in the bath solution, typically in the continuing presence of ISO. Currents were acquired with an Axoclamp 900A amplifier and Clampex 10.2 software, and current data were digitized at 2 kHz.

WT-hCFTR [2] = target: T1, WT-hCFTR; test: Two-electrode voltage clamp (TEVC) on wildtype hCFTR expressed in Xenopus oocytes; format: cell-based; settings: for effect on hCFTR current (block / potentiation), in words / Kd: ~50 s extracellular exposure; for Kd: VM=−60 mV
Procedure: The effects of OSSK-2 and OSSK-3 on hCFTR were tested by expression in Xenopus oocytes. Representative current traces using the two-electrode voltage clamp technique (TEVC) are shown in FIGS. 2A and 2B for OSSK-3 and FIG. 2C for OSSK-2.
as §1, §2

T1 sequence (P13569 whole entry): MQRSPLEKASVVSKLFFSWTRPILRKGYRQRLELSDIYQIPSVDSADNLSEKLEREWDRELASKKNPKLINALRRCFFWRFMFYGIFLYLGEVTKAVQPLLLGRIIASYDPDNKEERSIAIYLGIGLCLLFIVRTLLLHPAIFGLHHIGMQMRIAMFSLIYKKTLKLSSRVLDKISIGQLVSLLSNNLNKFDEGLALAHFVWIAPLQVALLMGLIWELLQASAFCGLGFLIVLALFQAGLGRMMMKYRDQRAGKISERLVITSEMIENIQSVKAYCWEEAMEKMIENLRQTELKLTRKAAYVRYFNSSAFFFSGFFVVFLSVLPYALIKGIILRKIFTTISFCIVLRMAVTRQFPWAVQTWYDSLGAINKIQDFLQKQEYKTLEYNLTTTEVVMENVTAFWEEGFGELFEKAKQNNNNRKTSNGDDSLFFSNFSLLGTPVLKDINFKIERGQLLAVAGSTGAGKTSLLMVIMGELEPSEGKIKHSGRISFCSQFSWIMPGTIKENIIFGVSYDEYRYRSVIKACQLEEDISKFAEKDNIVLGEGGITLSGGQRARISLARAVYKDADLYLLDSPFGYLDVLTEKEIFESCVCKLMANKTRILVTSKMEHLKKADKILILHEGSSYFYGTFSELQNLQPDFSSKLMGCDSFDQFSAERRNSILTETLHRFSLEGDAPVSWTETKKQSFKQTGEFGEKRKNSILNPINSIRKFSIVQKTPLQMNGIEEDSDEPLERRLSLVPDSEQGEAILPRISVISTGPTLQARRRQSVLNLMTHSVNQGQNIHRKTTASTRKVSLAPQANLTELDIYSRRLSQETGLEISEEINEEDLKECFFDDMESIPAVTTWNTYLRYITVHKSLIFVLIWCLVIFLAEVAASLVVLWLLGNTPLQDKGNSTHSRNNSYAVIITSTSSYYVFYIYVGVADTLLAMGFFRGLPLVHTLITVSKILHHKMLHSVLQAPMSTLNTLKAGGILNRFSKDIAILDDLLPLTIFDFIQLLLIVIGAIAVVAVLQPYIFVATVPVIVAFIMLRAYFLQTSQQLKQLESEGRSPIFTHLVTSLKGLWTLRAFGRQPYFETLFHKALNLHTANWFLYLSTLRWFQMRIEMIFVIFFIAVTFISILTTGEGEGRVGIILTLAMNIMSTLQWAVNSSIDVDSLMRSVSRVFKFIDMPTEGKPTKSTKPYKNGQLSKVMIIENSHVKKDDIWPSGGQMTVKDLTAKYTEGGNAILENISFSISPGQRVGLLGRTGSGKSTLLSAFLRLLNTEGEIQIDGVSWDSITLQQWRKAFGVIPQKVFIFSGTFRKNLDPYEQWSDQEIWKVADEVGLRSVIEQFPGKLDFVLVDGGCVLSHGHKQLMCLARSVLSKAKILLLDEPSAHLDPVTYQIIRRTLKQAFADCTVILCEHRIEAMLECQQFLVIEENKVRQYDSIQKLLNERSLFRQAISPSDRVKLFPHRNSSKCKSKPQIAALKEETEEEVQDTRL

Row | SMILES | potentiation of mutant CFTR, in words (multiple CFTR mutations) | potentiation of WT-hCFTR, in words (WT-hCFTR [1]) | potentiation of F508del-hCFTR, summary in words (F508del-hCFTR) | potentiation of WT-hCFTR, summary in words (WT-hCFTR [2]) | effect on hCFTR current (block / potentiation), in words (WT-hCFTR [2]) | effect on F508del-hCFTR current (block / potentiation), in words (F508del-hCFTR; VM=−60 mV, 5 μM, ~50 s extracellular exposure) | Kd (WT-hCFTR [2]; read-out: apparent Kd for block of hCFTR) | Kd (WT-hCFTR [2]; read-out: apparent Kd for potentiation of hCFTR)
1 | CC(C)(C)c1cc(C(C)(C)C)c(NC(=O)c2c[nH]c3ccccc3c2=O)cc1O [VX-770, ivacaftor] | strongly potentiates multiple CFTR mutations | only mildly potentiates WT-hCFTR | – | – | – | – | – | –
2 | Cc1cccc(NCC(=O)N/N=C/c2cc(Br)c(O)c(Br)c2O)c1 [OSSK-2, (E)-N′-(3,5-dibromo-2,4-dihydroxybenzylidene)-2-(m-tolylamino)acetohydrazide] | – | – | very strongly potentiate F508del-hCFTR | mildly potentiate WT-hCFTR | very weak block on hCFTR without obvious potentiation | – | – | –
3 | Cc1ccc(NCC(=O)N/N=C/c2cc(Br)c(O)c(Br)c2O)cc1 [OSSK-3, (E)-N′-(3,5-dibromo-2,4-dihydroxybenzylidene)-2-(p-tolylamino)acetohydrazide] | – | – | very strongly potentiate F508del-hCFTR | mildly potentiate WT-hCFTR | both block as well as potentiation of hCFTR | very weak initial block that was followed by significantly stronger potentiation compared to the potentiation of WT-hCFTR | 33 µM | 0.0317 µM

Reference: patent US11116736B2, “2-amino-N'-benzylideneacetohydrazides and derivatives for the management of CFTR protein mediated diseases” (Emory University, priority 2015, dated 2021)
